Like-named read-outs stand apart in the source and are kept apart here.
Experiments:
Assay type in all cases: biochemical
[1] = biological target: T1, Sulfolobus solfataricus MAT (sMAT) (Saccharolobus solfataricus, UniProt Q980S9); conditions: 2 mM analog, 1 mM ATP, 5 μM sMAT, pH 8.0, 4 h at 65° C., average of two assays
T1 sequence (Q980S9 1-404): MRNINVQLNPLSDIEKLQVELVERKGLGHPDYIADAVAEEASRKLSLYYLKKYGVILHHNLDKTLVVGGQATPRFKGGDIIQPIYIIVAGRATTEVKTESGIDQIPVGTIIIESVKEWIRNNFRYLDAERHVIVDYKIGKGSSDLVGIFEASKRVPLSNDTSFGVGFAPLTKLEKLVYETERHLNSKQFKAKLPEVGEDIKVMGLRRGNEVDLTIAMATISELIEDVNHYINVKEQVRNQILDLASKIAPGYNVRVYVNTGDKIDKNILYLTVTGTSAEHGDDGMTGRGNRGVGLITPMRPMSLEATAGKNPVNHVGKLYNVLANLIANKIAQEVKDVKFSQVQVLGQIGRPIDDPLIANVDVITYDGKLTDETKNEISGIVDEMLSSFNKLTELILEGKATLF

[2] = biological target: T2, Methanocaldococcus jannaschii MAT (mMAT) (Methanocaldococcus jannaschii, UniProt Q58605); conditions: 2 mM Met analog, 1 mM ATP, 5 μM MAT, pH 8, 4 h, 65° C.; average of two assays
T2 sequence (Q58605 1-406): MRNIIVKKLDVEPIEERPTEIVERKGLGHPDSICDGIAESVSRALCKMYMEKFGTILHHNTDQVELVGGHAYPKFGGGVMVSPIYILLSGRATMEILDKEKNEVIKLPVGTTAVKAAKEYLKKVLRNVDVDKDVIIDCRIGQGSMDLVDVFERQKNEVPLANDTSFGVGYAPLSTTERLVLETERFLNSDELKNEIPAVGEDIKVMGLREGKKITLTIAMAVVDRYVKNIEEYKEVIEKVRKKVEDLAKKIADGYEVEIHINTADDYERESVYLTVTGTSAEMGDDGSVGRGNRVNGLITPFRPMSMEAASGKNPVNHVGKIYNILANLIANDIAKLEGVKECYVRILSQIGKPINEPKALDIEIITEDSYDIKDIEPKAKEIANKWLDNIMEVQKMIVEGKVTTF

[3] = biological target: human MAT II catalytic alpha and regulatory beta subunit (hMAT2) (Homo sapiens, UniProt P31153); experiment: MAT assay, turnover of S/Se-Met analogs to S(Se)AM analogs (RP-HPLC end point); conditions: 2 mM Met analog, 1 mM ATP, 5 μM MAT, pH 8, 4 h, 37° C.; average of two assays
[4] = biological target: human MAT II catalytic alpha subunit alone (hMAT2A) (Homo sapiens, UniProt P31153); experiment: as above; conditions: 2 mM Met analog, 1 mM ATP, 5 μM MAT, pH 8, 4 h, 37° C., average of two assays
[5] = biological target: human MAT I catalytic subunit alpha (hMAT1A) (Homo sapiens, UniProt Q00266); experiment: as above; conditions: 2 mM Met analog, 1 mM ATP, 5 μM MAT, pH 8, 4 h, 37° C.; average of two assays

With `CCSCC[C@H](N)C(=O)O` [compound 3, (2S)-2-amino-4-(ethylsulfanyl)butanoic acid] the “Percentage Turn-Over (sMAT)” value [1] was 84%, the “Percentage Turn-Over (sMAT)” value ([1]; listed as ethionine) was ~100% and the “Percentage Turn-over mMAT” value [2] was 94%. The “Percentage Turn-over hMAT2” value [3] was 88%, the “Percentage Turn-over hMAT2A” value [4] was 90% and the “Percentage Turn-over hMAT2A” value ([4]; listed as ethionine) was ~100%. The “Percentage Turn-over hMAT1A” value [5] was 75%.

Reference: patent US9879043B1, “Synthesis of non-natural cofactor analogs of S-adenosyl-L-methionine using methionine adenosyltransferase” (University of Kentucky Research Foundation, priority 2013, dated 2018)
